Reference: ChEMBL document CHEMBL5053510, “Discovery of AS-1763: A Potent, Selective, Noncovalent, and Orally Available Inhibitor of Bruton's Tyrosine Kinase” (J Med Chem, 2021)
Activity calls are given as the source filed them. The calls are words filed in the database; no cut-off is given here.

How the values were obtained:
[1] = target: Tyrosine-protein kinase ITK/TSK (Homo sapiens, UniProt Q08881); experiment: Inhibition of human ITK (2 - 620 residues) expressed in baculovirus expression system by mobility shift assay
[2] = MRT (0 to last) in rat at 2 mg/kg, iv; type: ADME, organism-based; settings: in vivo
[3] = target: Tyrosine-protein kinase BTK (Mus musculus) (UniProt P35991); experiment: Inhibition of BTK in […] mouse blood assessed as reduction in BTK phosphorylation at Tyr223 residue at 15 mg/kg, po measured after 8 hrs; type: organism-based
Sequence of Tyrosine-protein kinase BTK (Mus musculus) (P35991 whole entry, the tested form may be a part): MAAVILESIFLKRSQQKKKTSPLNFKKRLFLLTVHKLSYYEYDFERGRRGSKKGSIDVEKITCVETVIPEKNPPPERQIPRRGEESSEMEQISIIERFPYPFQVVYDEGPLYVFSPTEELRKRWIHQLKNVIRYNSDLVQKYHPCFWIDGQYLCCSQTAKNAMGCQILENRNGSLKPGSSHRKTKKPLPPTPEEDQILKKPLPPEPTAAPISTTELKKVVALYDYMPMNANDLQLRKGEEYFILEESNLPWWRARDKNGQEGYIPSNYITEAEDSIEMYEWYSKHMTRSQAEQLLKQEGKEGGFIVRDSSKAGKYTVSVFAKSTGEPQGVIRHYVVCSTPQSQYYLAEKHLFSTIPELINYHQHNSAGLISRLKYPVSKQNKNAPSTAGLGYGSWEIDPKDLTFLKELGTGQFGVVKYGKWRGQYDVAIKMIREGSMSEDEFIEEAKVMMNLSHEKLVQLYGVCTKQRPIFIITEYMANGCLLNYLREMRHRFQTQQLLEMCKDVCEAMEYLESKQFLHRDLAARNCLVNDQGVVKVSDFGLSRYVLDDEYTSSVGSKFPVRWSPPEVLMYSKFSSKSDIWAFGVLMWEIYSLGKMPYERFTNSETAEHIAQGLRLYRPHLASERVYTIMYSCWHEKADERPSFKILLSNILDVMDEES

[4] = Initial plasma concentration in mouse at 15 mg/kg, po; type: ADME, organism-based; settings: in vivo
HEL 299 = experiment: Cytotoxicity against human HEL 299 cells assessed as cell growth inhibition measured after 96 hrs; type: cell-based; settings: HEL 299, 96 h
OCI-Ly10 [5] = experiment: Antiproliferative activity against human OCILY10 cells harboring BTK C481S mutant […] gene assessed as reduction in cell viability after 96 hrs; type: functional, cell-based; settings: OCI-Ly10, 96 h
[6] = Volume of distribution in steady state rat at 2 mg/kg, iv; type: ADME, organism-based; settings: in vivo, read-out: Vdss
[7] = Metabolic stability in rat hepatocytes assessed as Intrinsic clearance; type: ADME, cell-based, Hepatocyte
[8] = Apparent permeability of the compound in human Caco-2 cells; type: ADME, cell-based
[9] = Initial plasma concentration in dog at 5 mg/kg, po; type: ADME, organism-based, Canis lupus familiaris; settings: in vivo
[10] = Metabolic stability in mouse hepatocytes assessed as Intrinsic clearance; type: ADME, cell-based, Hepatocyte
[11] = MRT (0 to last) in mouse at 15 mg/kg, po; type: ADME, organism-based; settings: in vivo
[12] = target: T1, Tyrosine-protein kinase BTK (Homo sapiens, UniProt Q06187); experiment: Inhibition of human full-length BTK (2 to 659 residues) expressed in baculovirus expression system at 0.3 uM by mobility shift assay
T1 sequence (Q06187 whole entry, the tested form may be a part): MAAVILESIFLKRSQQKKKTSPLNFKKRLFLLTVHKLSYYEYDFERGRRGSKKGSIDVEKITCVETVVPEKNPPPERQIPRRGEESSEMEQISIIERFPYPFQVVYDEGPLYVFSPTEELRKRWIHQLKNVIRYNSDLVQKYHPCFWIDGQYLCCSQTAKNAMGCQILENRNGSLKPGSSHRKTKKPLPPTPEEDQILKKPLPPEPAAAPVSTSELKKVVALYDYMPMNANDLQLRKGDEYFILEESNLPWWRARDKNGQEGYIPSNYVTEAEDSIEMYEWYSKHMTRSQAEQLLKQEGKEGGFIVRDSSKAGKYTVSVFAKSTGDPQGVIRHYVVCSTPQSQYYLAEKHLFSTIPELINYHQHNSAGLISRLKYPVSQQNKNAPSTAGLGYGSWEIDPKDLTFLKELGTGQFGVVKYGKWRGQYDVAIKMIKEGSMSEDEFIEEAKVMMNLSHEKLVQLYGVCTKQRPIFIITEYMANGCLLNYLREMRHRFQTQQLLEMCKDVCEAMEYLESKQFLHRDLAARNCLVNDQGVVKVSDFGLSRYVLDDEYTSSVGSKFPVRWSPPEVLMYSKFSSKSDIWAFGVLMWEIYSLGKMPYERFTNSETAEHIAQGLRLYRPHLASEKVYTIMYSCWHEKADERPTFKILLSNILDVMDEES

[13] = AUC (0 to last) in rat at 15 mg/kg, po; type: ADME, organism-based; set-up: time 0 - last, dose 15 mg/kg, route po; settings: in vivo
[14] = target: Tyrosine-protein kinase ITK/TSK (Homo sapiens) (UniProt Q08881); experiment: Inhibition of human ITK (2 - 620 residues) expressed in baculovirus expression system at 0.3 uM by mobility shift assay
[15] = system: Proto-oncogene tyrosine-protein kinase receptor Ret (Homo sapiens), P07949 [S891A]; experiment: Inhibition of human RET S891A mutant (658 - 1114) expressed in baculovirus expression system at 0.3 uM by mobility shift assay
Sequence of Proto-oncogene tyrosine-protein kinase receptor Ret (Homo sapiens), P07949 [S891A] (P07949 whole entry S891A): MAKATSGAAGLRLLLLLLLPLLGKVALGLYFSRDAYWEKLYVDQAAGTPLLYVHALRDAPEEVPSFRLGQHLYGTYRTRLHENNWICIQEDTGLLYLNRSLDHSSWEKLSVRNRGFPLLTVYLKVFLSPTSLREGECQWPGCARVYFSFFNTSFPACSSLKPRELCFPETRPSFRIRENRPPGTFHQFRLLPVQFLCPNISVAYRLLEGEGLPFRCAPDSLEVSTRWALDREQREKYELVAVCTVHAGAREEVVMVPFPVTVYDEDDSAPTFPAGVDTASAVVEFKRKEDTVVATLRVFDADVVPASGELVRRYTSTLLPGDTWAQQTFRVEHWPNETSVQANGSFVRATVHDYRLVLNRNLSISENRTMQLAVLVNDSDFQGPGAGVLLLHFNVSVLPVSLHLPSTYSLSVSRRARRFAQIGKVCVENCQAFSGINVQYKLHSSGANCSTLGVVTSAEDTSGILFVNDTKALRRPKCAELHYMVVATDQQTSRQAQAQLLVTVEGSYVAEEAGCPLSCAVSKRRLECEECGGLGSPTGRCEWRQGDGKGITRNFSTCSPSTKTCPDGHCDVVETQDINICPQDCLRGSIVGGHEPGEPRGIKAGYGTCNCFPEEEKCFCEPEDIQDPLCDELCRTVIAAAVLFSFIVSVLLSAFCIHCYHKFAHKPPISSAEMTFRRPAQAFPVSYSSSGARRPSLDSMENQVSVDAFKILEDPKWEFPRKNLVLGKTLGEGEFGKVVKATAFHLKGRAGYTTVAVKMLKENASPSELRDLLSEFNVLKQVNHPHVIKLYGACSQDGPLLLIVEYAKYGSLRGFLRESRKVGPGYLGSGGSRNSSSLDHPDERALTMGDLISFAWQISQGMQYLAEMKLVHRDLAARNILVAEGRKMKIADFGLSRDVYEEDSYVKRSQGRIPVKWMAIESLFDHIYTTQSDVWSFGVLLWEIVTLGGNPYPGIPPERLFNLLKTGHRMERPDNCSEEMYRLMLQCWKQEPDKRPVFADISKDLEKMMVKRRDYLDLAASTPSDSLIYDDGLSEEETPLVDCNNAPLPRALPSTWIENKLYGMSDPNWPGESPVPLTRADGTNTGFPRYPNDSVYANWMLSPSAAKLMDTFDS

[16] = Plasma protein binding in human; type: ADME, cell-free; settings: read-out: PPB (converted)
Cytochrome P450 2C9 = Cytochrome P450 2C9 (Homo sapiens, UniProt P11712); experiment: Inhibition of CYP2C9 (unknown origin); type: ADME
[17] = Clearence in dog at 1 mg/kg, iv; type: ADME, organism-based, Canis lupus familiaris; settings: in vivo
[18] = target: Cytoplasmic tyrosine-protein kinase BMX (Homo sapiens, UniProt P51813); experiment: Inhibition of human full-length BMX (1 to 675 residues) expressed in baculovirus expression system by mobility shift assay
[19] = AUC (0 to last) in rat at 2 mg/kg, iv; type: ADME, organism-based; set-up: time 0 - last, dose 2 mg/kg, route iv; settings: in vivo
[20] = target: T1, Tyrosine-protein kinase BTK; experiment: Inhibition of human BTK-A using phosphorylated substrate in presence of ATP by microplate reader assay
OCI-Ly10 [21] = experiment: Antitumor activity against human OCILY10 cells xenografted in SCID mouse assessed as tumor growth inhibition at 6 mg/kg, po bid measured after 63 days; type: functional; settings: OCI-Ly10, 1512 h, time 63 day, read-out: TGI
[22] = Metabolic stability in human hepatocytes assessed as Intrinsic clearance; type: ADME, cell-based, Hepatocyte
[23] = Oral bioavailability in rat at 15 mg/kg; type: ADME, organism-based; settings: in vivo
Cytochrome P450 2B6 = Cytochrome P450 2B6 (Homo sapiens, UniProt P20813); experiment: Inhibition of CYP2B6 (unknown origin); type: ADME
Sequence of Cytochrome P450 2B6 (P20813 whole entry): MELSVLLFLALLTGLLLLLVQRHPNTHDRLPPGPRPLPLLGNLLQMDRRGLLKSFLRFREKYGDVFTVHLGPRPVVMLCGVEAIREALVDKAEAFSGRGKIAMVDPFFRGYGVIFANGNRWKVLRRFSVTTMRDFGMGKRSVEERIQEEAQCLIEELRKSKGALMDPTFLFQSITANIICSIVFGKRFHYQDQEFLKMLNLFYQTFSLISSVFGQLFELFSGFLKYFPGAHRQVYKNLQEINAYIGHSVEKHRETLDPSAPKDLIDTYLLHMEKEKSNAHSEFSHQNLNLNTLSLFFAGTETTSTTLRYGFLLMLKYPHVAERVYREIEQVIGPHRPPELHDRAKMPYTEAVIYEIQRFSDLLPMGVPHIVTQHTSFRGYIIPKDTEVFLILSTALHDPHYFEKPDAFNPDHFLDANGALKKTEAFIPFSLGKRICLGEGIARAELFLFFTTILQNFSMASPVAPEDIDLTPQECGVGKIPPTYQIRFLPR

OCI-Ly10 [24] = experiment: Antitumor activity against human OCILY10 cells xenografted in SCID mouse assessed as tumor growth inhibition at 20 mg/kg, po bid measured after 63 days; type: functional; settings: OCI-Ly10, 1512 h, time 63 day, read-out: TGI
[25] = target: Tyrosine-protein kinase Tec (Homo sapiens) (UniProt P42680); experiment: Inhibition of human TEC (359- 631) expressed in baculovirus expression system at 0.3 uM by mobility shift assay
[26] = Half life in mouse at 2 mg/kg, iv; type: ADME, organism-based; settings: in vivo
[27] = Plasma protein binding in dog; type: ADME, cell-free, Canis lupus familiaris; settings: read-out: PPB (converted)
Cytochrome P450 2C8 = Cytochrome P450 2C8 (Homo sapiens, UniProt P10632); experiment: Inhibition of CYP2C8 (unknown origin); type: ADME
[28] = target: Tyrosine-protein kinase BTK (Mus musculus) (UniProt P35991); experiment: Inhibition of BTK in […] mouse blood assessed as reduction in BTK phosphorylation at Tyr223 residue at 30 mg/kg, po measured after 8 hrs; type: organism-based
[29] = target: T2, Epithelial discoidin domain-containing receptor 1 (Homo sapiens, UniProt Q08345); experiment: Inhibition of human DDR1 (444 - 876 residues) expressed in baculovirus expression system at 0.3 uM by mobility shift assay
T2 sequence (Q08345 whole entry, the tested form may be a part): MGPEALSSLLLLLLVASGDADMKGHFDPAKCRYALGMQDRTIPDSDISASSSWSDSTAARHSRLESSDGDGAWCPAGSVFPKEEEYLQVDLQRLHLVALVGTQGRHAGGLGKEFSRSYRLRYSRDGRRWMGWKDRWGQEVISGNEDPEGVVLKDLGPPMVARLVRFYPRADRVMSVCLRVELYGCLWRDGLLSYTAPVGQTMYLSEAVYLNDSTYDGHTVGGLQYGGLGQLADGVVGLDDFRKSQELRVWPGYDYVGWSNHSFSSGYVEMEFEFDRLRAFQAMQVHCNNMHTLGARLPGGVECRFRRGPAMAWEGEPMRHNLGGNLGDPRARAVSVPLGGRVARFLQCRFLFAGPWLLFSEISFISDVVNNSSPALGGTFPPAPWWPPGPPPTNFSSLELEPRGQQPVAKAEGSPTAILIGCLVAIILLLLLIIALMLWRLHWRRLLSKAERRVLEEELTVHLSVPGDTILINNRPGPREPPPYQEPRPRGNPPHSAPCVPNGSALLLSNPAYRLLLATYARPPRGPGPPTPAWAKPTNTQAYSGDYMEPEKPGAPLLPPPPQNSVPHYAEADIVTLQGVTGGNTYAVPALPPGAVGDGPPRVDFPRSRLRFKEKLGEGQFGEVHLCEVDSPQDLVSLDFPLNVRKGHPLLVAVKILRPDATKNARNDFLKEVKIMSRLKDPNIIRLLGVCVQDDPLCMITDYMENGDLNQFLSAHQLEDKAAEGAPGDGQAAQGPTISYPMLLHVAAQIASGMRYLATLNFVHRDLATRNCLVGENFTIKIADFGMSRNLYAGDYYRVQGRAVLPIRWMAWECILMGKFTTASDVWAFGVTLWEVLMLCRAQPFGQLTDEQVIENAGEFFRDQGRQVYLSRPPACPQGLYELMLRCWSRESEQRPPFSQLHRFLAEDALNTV

[30] = target: Muscle, skeletal receptor tyrosine-protein kinase (Homo sapiens) (UniProt O15146); experiment: Inhibition of human MUSK expressed in baculovirus expression system at 0.3 uM by mobility shift assay
OCI-Ly10 [31] = experiment: Antitumor activity against human OCILY10 cells in SCID mouse assessed as tumor growth inhibition at 60 mg/kg, po bid measured after 63 days; type: functional; settings: OCI-Ly10, 1512 h, time 63 day, read-out: TGI
[32] = AUC (0 to last) in dog at 1 mg/kg, iv; type: ADME, organism-based, Canis lupus familiaris; set-up: time 0 - last, dose 1 mg/kg, route iv; settings: in vivo
[33] = Clearence in mouse at 2 mg/kg, iv; type: ADME, organism-based; settings: in vivo
[34] = Tmax in mouse at 15 mg/kg, po; type: ADME, organism-based; settings: in vivo
[35] = target: T3, Proto-oncogene tyrosine-protein kinase Src (Homo sapiens, UniProt P12931); experiment: Inhibition of human full length SRC expressed in baculovirus expression system at 0.3 uM by mobility shift assay
T3 sequence (P12931 2-536 limits assumed): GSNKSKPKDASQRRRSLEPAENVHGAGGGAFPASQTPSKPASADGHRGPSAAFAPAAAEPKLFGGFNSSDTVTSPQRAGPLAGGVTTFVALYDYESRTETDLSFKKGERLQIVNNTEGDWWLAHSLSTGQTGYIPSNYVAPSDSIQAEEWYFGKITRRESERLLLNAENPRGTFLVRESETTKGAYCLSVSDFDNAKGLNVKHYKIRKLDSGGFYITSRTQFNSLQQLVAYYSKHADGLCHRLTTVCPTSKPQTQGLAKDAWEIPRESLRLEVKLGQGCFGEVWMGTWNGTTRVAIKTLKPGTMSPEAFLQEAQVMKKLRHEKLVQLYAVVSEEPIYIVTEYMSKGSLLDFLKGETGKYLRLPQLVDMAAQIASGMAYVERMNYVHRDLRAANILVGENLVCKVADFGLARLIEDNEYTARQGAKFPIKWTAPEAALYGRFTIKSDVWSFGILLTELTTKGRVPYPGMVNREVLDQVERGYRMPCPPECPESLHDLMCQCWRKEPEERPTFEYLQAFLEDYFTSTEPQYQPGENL

[36] = target: Cytoplasmic tyrosine-protein kinase BMX (Homo sapiens) (UniProt P51813); experiment: Inhibition of human full-length BMX (1 to 675 residues) expressed in baculovirus expression system at 0.3 uM by mobility shift assay
Cytochrome P450 1A2 = Cytochrome P450 1A2 (Homo sapiens, UniProt P05177); experiment: Inhibition of CYP1A2 (unknown origin); type: ADME
Cytochrome P450 2C19 = Cytochrome P450 2C19 (Homo sapiens, UniProt P33261); experiment: Inhibition of CYP2C19 (unknown origin); type: ADME
[37] = Initial plasma concentration in mouse at 2 mg/kg, iv; type: ADME, organism-based
[38] = Half life in rat at 15 mg/kg, po; type: ADME, organism-based; settings: in vivo
[39] = Oral bioavailability in dog at 5 mg/kg; type: ADME, organism-based, Canis lupus familiaris; settings: in vivo
[40] = Tmax in dog at 5 mg/kg, po; type: ADME, organism-based, Canis lupus familiaris; settings: in vivo
[41] = target: T3, Proto-oncogene tyrosine-protein kinase Src; experiment: Inhibition of human full length SRC expressed in baculovirus expression system by mobility shift assay
[42] = MRT (0 to last) in rat at 15 mg/kg, po; type: ADME, organism-based; settings: in vivo
[43] = target: Tyrosine-protein kinase BTK (Homo sapiens, UniProt Q06187, C481S); experiment: Inhibition of BTK C481S mutant (unknown origin) in presence of 1 mM ATP by microplate reader assay
Sequence of Tyrosine-protein kinase BTK (Homo sapiens, UniProt Q06187, C481S) (Q06187 2-659 C481S limits assumed): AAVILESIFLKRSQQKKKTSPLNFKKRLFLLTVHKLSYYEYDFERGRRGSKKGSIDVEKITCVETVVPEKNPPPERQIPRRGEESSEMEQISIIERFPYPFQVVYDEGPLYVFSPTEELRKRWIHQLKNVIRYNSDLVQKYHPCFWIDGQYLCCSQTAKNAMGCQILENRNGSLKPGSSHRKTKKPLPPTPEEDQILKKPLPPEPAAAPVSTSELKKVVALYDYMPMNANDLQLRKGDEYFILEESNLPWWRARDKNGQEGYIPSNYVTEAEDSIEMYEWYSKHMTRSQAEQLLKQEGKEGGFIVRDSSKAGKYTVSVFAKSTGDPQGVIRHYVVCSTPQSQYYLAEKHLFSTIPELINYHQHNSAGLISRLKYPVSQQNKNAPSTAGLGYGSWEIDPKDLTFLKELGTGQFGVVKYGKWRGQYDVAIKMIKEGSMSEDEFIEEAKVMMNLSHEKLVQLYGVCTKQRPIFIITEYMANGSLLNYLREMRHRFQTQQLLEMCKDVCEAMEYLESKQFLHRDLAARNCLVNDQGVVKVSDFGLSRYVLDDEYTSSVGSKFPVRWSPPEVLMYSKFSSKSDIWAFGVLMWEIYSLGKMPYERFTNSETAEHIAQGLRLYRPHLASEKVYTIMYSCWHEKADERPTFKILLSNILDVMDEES

[44] = target: T2, Epithelial discoidin domain-containing receptor 1; experiment: Inhibition of human DDR1 (444 - 876 residues) expressed in baculovirus expression system by mobility shift assay

For `Nc1nc(-c2cccc(-n3ccc4cc(C5CC5)cc(F)c4c3=O)c2CO)c2cc(C3=CCN(C4COC4)CC3)[nH]c2n1` [MILREBRUTINIB], the IC50 [1] was 0.0609 µM, the MRT last [2] was 2.92 h and the inhibition [3] was “Active”. It also gave a C0 [4] of 1717 ng/mL, an IC50 (HEL 299) of 6.37 µM and an IC50 (OCI-Ly10 [5]) of 0.0204 µM. It also gave a Vd [6] of 3.64 L/kg, a CLH [7] of 2.04 mL/min/g and a Papp [8] of 1.42 ×10⁻⁶ cm/s. It also gave a C0 [9] of 896 ng/mL, a CLH [10] of 2.11 mL/min/g and an MRT last [11] of 3.58 h. The inhibition [12] was 99.4%, the AUC(0-t) [13] was 1870 ng·h/mL and the inhibition [14] was 78.8%. It also gave an inhibition [15] of 67%, a fraction unbound [16] of 0.02 and an IC50 (Cytochrome P450 2C9) of 5.38 µM. It also gave a clearance [17] of 22.7 mL/min/kg, an IC50 [18] of 0.00849 µM and an AUC(0-t) [19] of 1650 ng·h/mL. The IC50 [20] was 0.00085 µM, the inhibition in vivo at 6 mg/kg (OCI-Ly10 [21]) was 74.5% and the CLH [22] was 0.76 mL/min/g. The bioavailability [23] was 15.9%, the IC50 (Cytochrome P450 2B6) was greater than 10 µM and the inhibition in vivo at 20 mg/kg (OCI-Ly10 [24]) was 81.6%. It also gave an inhibition [25] of 99.6%, a half-life [26] of 1.12 h and a fraction unbound [27] of 0.015. For the same molecule, the IC50 (Cytochrome P450 2C8) was 3.17 µM, the inhibition [28] was “Active” and the inhibition [29] was 53.4%. For the same molecule, the inhibition [30] was 53.2%, the inhibition in vivo at 60 mg/kg (OCI-Ly10 [31]) was 112% and the AUC(0-t) [32] was 734 ng·h/mL. For the same molecule, the clearance [33] was 18.8 mL/min/kg, the Tmax [34] was 2 h and the inhibition [35] was 51.9%. For the same molecule, the inhibition [36] was 97.7%, the IC50 (Cytochrome P450 1A2) was greater than 10 µM and the IC50 (Cytochrome P450 2C19) was greater than 10 µM. The C0 [37] was 972 ng/mL, the half-life [38] was 3.56 h and the bioavailability [39] was 68.1%. The Tmax [40] was 0.833 h, the IC50 [41] was 0.291 µM and the MRT last [42] was 4.03 h. For the same molecule, the IC50 [43] was 0.00588 µM and the IC50 [44] was 0.221 µM.
